# Non-standard residues stand in square brackets, D forms with d. Residues, ends and D or L forms follow the SMILES beside them. *: point of attachment. Coumarin3carbonyl(7-OH) = O=C(c1cc2ccc(O)cc2oc1=O)*; Acetyl(thymin-1-yl) = Cc1cn(CC(=O)*)c(=O)[nH]c1=O; PEG8 = NCCOCCOCCOCCOCCOCCOCCOCCOCCC(=O)O
# Tests used:
# T24 cells = test: CCK-8 cytotoxicity assay, T24 cells; type: cell-based, human; settings: 48 h; for IC50: human
# EJ cells = type: cell-based; settings: human, 48 h
# RT-112 cells = type: cell-based; settings: human, 48 h
# [1] = ATP sequestration: ATP hydrolysis by alkaline phosphatase (ALP); type: biochemical; settings: ATP 200 μM, ALP 0.5 U/mL, DEA buffer 10 mM pH 9.8, 37 °C, bioluminescence, blank control 13%
# SV-HUC-1 cells = test: Toxicity assay towards SV-HUC-1 normal bladder cells; type: cell-based; settings: viability, different concentrations, 48 h
# T24 xenograft mice [2] = test: In vivo / ex vivo dose-dependent fluorescence imaging in T24 xenograft mice; settings: i.v., 500 μM or 250 μM in 200 μL PBS, 1-96 hours, N = 3
# T24 xenograft mice [3] = test: In vivo antitumor evaluation, T24 subcutaneous xenograft model; settings: i.v. 500 μM in 200 μL PBS six times
# Protocol: 3 mm at 8 h post-treatment. The fragments were then fixed with 2.5% glutaraldehyde at 4°C overnight and treated with 1% […] for 2 h after being rinsed thrice with PBS.
# Subsequently, graded concentrations of alcohol solutions (50, 70, 80, 90, 100, 100 and 100%) were utilized for graded dehydration (with 10 minutes each). Next, tumor fragments were exposed to a mixture of alcohol/acetone (1:1) for 10 min, a mixture of acetone/EPON-812 (1:1) for 1 h and a mixture of acetone/EPON-812 (1:2) for 1 h. Pure EPON-812 was then utilized to further infiltrate the tumor fragments overnight at 4°C, after which it was cured at 37, 45 and 60°C for 24 h respectively. Finally, the morphology of NLS-FF-T in the tumor slice was observed by bio-Transmission Electron Microscope (bio-TEM) after being stained with 2% uranyl acetate and 3% lead citrate.
# To further verify the therapeutic potency of the IAS system, a T24 xenograft mouse […]
# When the average tumor volume reached 100-200 mm3, the T24 tumor-bearing mice were […]
# The individual tumor growth and body weight were measured every 2 d for analysis, with tumor volume calculated as follows: tumor width2 × tumor length × 0.5. […]
# At the end of the treatment period, T24 tumor tissues were collected and washed thrice with PBS. […] The ATP levels were then measured according to the manufacturer’s instructions using an ATP Content Assay Kit. […]
# healthy BALB/c nude mice = test: In vivo toxicology evaluation in healthy mice; settings: N = 4
# [4] = test system: T24 xenograft mice (incomplete tumor resection); settings: after intravenous administration, tumor-recurrence model
# Protocol: In vivo antitumor evaluation of IAS system in regrowth of residual tumor model
# To establish the T24 xenograft mouse model, BALB/c nude mice (approximately 6-8
# weeks, weighing 16-18 g) were subcutaneously injected with T24 cells (5 × 106) suspended
# in 100 μL Matrigel. The mice were randomly divided into five groups, with six mice in each
# group. Both body weight and tumor volume were measured for analysis. At 21 d after
# inoculation, tumor tissues of approximately 300-500 mm3 were resected, leaving a residual
# tumor of approximately 30-50 mm3. After that, the T24 xenograft mice were intravenously
# administered with PBS, NLS-FF, FF-T, NLS-T and NLS-FF-T (500 μM in 200 μL PBS)
# every two days on day 21, 23, 25, 27, 29 and 31. The tumor volume was calculated using the formula: tumor width2 × tumor length × 0.5.
# For two-group comparisons, statistical analysis was performed using one-way ANOVA
# followed by post hoc Tukey's test. The GraphPad Prism software 8.0 was used for all
# [5] = i.v. 1000, 500 or 250 μM in 200 μL PBS six times
Compound,IC50 (T24 cells),IC50 (EJ cells),IC50 (RT-112 cells),ATP remaining after ALP catalytic hydrolysis ([1]; NLS-FF-T nanofibers),ATP remaining after ALP catalytic hydrolysis ([1]; NLS-FF-T nanoparticle group),"cytotoxicity against T24 cells compared with T-ATP (T24 cells; viability, different concentrations)",toxicity towards T24 tumor cells versus SV-HUC-1 normal bladder cells (SV-HUC-1 cells),tumor accumulation and retention (in vivo fluorescence imaging) (T24 xenograft mice [2]),body weight (T24 xenograft mice [3]),"histology (H&E) of liver and kidney (healthy BALB/c nude mice; i.v. 1000, 500 or 250 μM in 200 μL PBS six times at 2-day intervals)","blood biochemistry (ALT, AST, ALP, BUN, CRE) (healthy BALB/c nude mice; [5])","routine blood examination (RBC, WBC, PLT, HGB, NEUT) versus PBS (healthy BALB/c nude mice; [5])",body weights [4]
"Cc1cn(CC(=O)NCCCC[C@H](NC(=O)c2cc3ccc(O)cc3oc2=O)C(=O)N[C@@H](CC(C)C)C(=O)N[C@H](C(=O)N[C@@H](Cc2ccccc2)C(=O)N[C@@H](Cc2ccccc2)C(=O)NCCOCCOCCOCCOCCOCCOCCOCCOCCC(=O)NCCOCCOCCOCCOCCOCCOCCOCCOCCC(=O)O)C(C)C)c(=O)[nH]c1=O [FF-T, HCA-K(T)LVFF-PEG2] ({Coumarin3carbonyl(7-OH)}-K(Acetyl(thymin-1-yl))LVFF[PEG8][PEG8]-OH)",408 µM,181 µM,356 µM,–,–,–,–,–,–,–,–,–,–
"CC(C)C[C@H](NC(=O)[C@H](CCCCN)NC(=O)c1cc2ccc(O)cc2oc1=O)C(=O)N[C@H](C(=O)N[C@@H](Cc1ccccc1)C(=O)N[C@@H](Cc1ccccc1)C(=O)NCCOCCOCCOCCOCCOCCOCCOCCOCCC(=O)N[C@H](C(=O)N[C@@H](CCCCN)C(=O)N[C@@H](CCCNC(=N)N)C(=O)N[C@@H](CCCCN)C(=O)N[C@@H](CCCCN)C(=O)N[C@@H](CCCCN)C(=O)N1CCC[C@H]1C(=O)O)C(C)C)C(C)C [NLS-FF, HCA-KLVFF-PEG-VKRKKKP] ({Coumarin3carbonyl(7-OH)}-KLVFF[PEG8]VKRKKKP-OH)",532 µM,278 µM,376 µM,–,–,–,–,–,–,–,–,–,–
"Cc1cn(CC(=O)NCCCC[C@H](NC(=O)c2cc3ccc(O)cc3oc2=O)C(=O)N[C@@H](CC(C)C)C(=O)N[C@H](C(=O)N[C@@H](Cc2ccccc2)C(=O)N[C@@H](Cc2ccccc2)C(=O)NCCOCCOCCOCCOCCOCCOCCOCCOCCC(=O)N[C@H](C(=O)N[C@@H](CCCCN)C(=O)N[C@@H](CCCNC(=N)N)C(=O)N[C@@H](CCCCN)C(=O)N[C@@H](CCCCN)C(=O)N[C@@H](CCCCN)C(=O)N2CCC[C@H]2C(=O)O)C(C)C)C(C)C)c(=O)[nH]c1=O [NLS-FF-T, HCA-K(T)LVFF-PEG-VKRKKKP] ({Coumarin3carbonyl(7-OH)}-K(Acetyl(thymin-1-yl))LVFF[PEG8]VKRKKKP-OH)",34 µM,32 µM,43.3 µM,61%,27%,significantly higher cytotoxicity against T24 cells than that of T-ATP,enhanced toxicity towards tumor cells (T24) than that of normal cells (SV-HUC-1),dose-dependent tumor accumulation and long-time tumor retention,no substantial loss of body weight,no signs of histological deterioration or damage,typical ranges,no differences,no impact
"Cc1cn(CC(=O)NCCCC[C@H](NC(=O)c2cc3ccc(O)cc3oc2=O)C(=O)N[C@@H](CC(C)C)C(=O)N[C@H](C(=O)NCCOCCOCCOCCOCCOCCOCCOCCOCCC(=O)N[C@H](C(=O)N[C@@H](CCCCN)C(=O)N[C@@H](CCCNC(=N)N)C(=O)N[C@@H](CCCCN)C(=O)N[C@@H](CCCCN)C(=O)N[C@@H](CCCCN)C(=O)N2CCC[C@H]2C(=O)O)C(C)C)C(C)C)c(=O)[nH]c1=O [NLS-T, HCA-K(T)LV-PEG-VKRKKKP] ({Coumarin3carbonyl(7-OH)}-K(Acetyl(thymin-1-yl))LV[PEG8]VKRKKKP-OH)",119 µM,122 µM,107 µM,–,–,–,–,–,–,–,–,–,–

# From paper PMC10903983, “Inducing mitochondriopathy-like damages by transformable nucleopeptide nanoparticles for targeted therapy of bladder cancer” (National Science Review, 2024)
